From US8080549B2, “Endothelin receptor antagonists” (CoNCERT Pharmaceuticals, Inc., priority 2007, dated 2011)
Where two headings read alike, the source gives them in different places.

Legend:
CYP3A4 = biological target: T1, CYP3A4 (Homo sapiens, UniProt P08684); assay: Metabolic stability in CYP3A4 Supersomes; format: in vitro ADME; details: human, recombinant CYP3A4 Supersomes, 1 μM test compound
T1 construct: purchased BD Gentest
Method: (§1) Materials: CYP3A4 Supersomes™ were obtained from BD Gentest. β-nicotinamide adenine dinucleotide phosphate, reduced form (NADPH), magnesium chloride (MgCl2), and dimethyl sulfoxide (DMSO) were purchased from Sigma-Aldrich.
(§2) Determination of Metabolic Stability: 7.5 mM stock solutions of test compounds were prepared in DMSO. The 7.5 mM stock solutions were diluted to 50 μM in acetonitrile (ACN). The 1000 pmol/mL CYP3A4 supersomes were diluted to 50 pmol/mL in 0.1 M potassium phosphate buffer, pH 7.4, containing 3 mM MgCl2. The diluted supersomes were added to wells of a 96-well deep-well polypropylene plate in triplicate. 10 μL of the 50 μM test compound was added to the supersomes and the mixture was pre-warmed for 10 minutes. Reactions were initiated by addition of pre-warmed NADPH solution. The final reaction volume was 0.5 mL and contained 40 pmol/mL CYP3A4 supersomes, 1 μM test compound, and 2 mM NADPH in 0.1 M potassium phosphate buffer, pH 7.4, and 3 mM MgCl2. The reaction mixtures were incubated at 37° C. and 50 μL aliquots were removed at 0, 5, 10, 20, and 30 minutes and added to shallow-well 96-well plates which contained 50 μL of ice-cold ACN with internal standard to stop the reactions. The plates were stored at 4° C. for 20 minutes after which 100 μL of water was added to the wells of the plate before centrifugation to pellet precipitated proteins. Supernatants were transferred to another 96-well plate and analyzed for amounts of parent remaining by LC-MS/MS using an Applied Bio-systems API 4000 mass spectrometer.
(§3) Data analysis: The in vitro t1/2s for test compounds were calculated from the slopes of the linear regression of % parent remaining (ln) vs incubation time relationship. • in vitro t1/2=0.693/k • k=−[slope of linear regression of % parent remaining(ln) vs incubation time]
(§4) Data analysis was performed using Microsoft Excel Software.

CYP3A4 supersomes = biological target: T2, CYP3A4 supersomes (Homo sapiens, UniProt P08684); assay: Metabolic stability in CYP3A4 Supersomes; format: in vitro ADME; details: for increase of in vitro t1/2 over non-deuterated bosentan: CYP3A4 supersomes, under the assay conditions tested, approximate values; for % Difference: [(deuterated species) − (nondeuterated species)](100)/(nondeuterated species), of Ave t1/2 vs bosentan
T2 construct: purchased BD Gentest
T2 sequence (P08684 whole entry): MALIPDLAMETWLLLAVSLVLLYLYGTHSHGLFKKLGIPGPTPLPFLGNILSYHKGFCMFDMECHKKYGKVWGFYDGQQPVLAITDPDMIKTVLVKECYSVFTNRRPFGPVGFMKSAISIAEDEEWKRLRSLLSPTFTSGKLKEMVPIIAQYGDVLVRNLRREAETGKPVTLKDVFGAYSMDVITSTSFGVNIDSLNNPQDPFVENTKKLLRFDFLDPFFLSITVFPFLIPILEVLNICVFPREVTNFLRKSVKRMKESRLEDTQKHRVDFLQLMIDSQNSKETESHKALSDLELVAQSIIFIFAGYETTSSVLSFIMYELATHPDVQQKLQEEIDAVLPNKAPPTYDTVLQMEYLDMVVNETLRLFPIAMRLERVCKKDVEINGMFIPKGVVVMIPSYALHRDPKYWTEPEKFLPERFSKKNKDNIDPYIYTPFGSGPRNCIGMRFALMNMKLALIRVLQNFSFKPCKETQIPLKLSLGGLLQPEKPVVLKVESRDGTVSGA
Method: as §1, §2, §3, §4

[1] = active metabolite of bosentan; cited from earlier work
[2] = pH 7.4, average of Experiments 1 and 2, CYP3A4 supersomes, read-out: Ave t1/2
[3] = pH 7.4, in vitro half-life, 40 pmol/mL CYP3A4 supersomes, 2 mM NADPH, pH 7.4, 37° C., 0-30 minutes, Experiment 1, read-out: t1/2 (minutes) Experiment 1
[4] = pH 7.4, in vitro half-life, 40 pmol/mL CYP3A4 supersomes, 2 mM NADPH, pH 7.4, 37° C., 0-30 minutes, Experiment 2, read-out: t1/2 (minutes) Experiment 2

T1 sequence (P08684 whole entry): as above

Structure (SMILES) | half-life at 1 μM (CYP3A4; [2]) [min] | half-life at 1 μM (CYP3A4; [3]) [min] | half-life at 1 μM (CYP3A4; [4]) [min] | increase of in vitro t1/2 over non-deuterated bosentan (CYP3A4 supersomes) [%] | % Difference (CYP3A4 supersomes) [%] | share of the overall pharmaceutical properties of bosentan [1]
COc1ccccc1Oc1c(NS(=O)(=O)c2ccc(C(C)(C)C)cc2)nc(-c2ncccn2)nc1OCCO [Bosentan, N[6-(2-hydroxyethoxy)-5-(2-methoxyphenoxy)-2-pyrimidin-2-yl-pyrimidin-4-yl]-4-tert-butyl-benzenesulfonamide, reference compound] | 35.8 | 34.3 | 37.2 | – | – | –
[2H]C([2H])([2H])Oc1ccccc1Oc1c(NS(=O)(=O)c2ccc(C(C([2H])([2H])[2H])(C([2H])([2H])[2H])C([2H])([2H])[2H])cc2)nc(-c2ncccn2)nc1OCCO [Compound 101, 4-(tert-Butyl-d9)-N-(6-(2-hydroxyethoxy)-5-(2-(methoxy-d3)-phenoxy)-2,2′-bipyrimidin-4-yl)benzenesulfonamide] | 41.2 | 41 | 41.3 | ~15 | 15.1 | –
[2H]C([2H])(O)COc1nc(-c2ncccn2)nc(NS(=O)(=O)c2ccc(C(C([2H])([2H])[2H])(C([2H])([2H])[2H])C([2H])([2H])[2H])cc2)c1Oc1ccccc1OC([2H])([2H])[2H] [Compound 106, 4-(tert-Butyl-d9)-N-(6-(2-hydroxy-2,2-d2-ethoxy)-5-(2-(methoxy-d3)phenoxy)-2,2′-bipyrimidin-4-yl)benzenesulfonamide] | 55.2 | 53.3 | 57.2 | ~54 | 54.2 | –
COc1ccccc1Oc1c(NS(=O)(=O)c2ccc(C(C)(C)CO)cc2)nc(-c2ncccn2)nc1OCCO [hydroxybosentan] | – | – | – | – | – | up to 20%

Now from value to molecule, other results behind:

half-life at 1 μM (CYP3A4; [2]) [min] | half-life at 1 μM (CYP3A4; [3]) [min] | half-life at 1 μM (CYP3A4; [4]) [min] | increase of in vitro t1/2 over non-deuterated bosentan (CYP3A4 supersomes) [%] | % Difference (CYP3A4 supersomes) [%] | Structure (SMILES) | share of the overall pharmaceutical properties of bosentan [1]
46.2 | 45.7 | 46.8 | ~29 | 29.1 | [2H]C([2H])([2H])Oc1ccccc1Oc1c(NS(=O)(=O)c2ccc(C(C)(C)C)cc2)nc(-c2ncccn2)nc1OCCO [Compound 102, 4-tert-Butyl-N-(6-(2-hydroxyethoxy)-5-(2-(methoxy-d3)-phenoxy)-2,2′-bipyrimidin-4-yl)benzenesulfonamide] | –
38.2 | 35.9 | 40.5 | – | 6.7 | [2H]C([2H])([2H])C(c1ccc(S(=O)(=O)Nc2nc(-c3ncccn3)nc(OCCO)c2Oc2ccccc2OC)cc1)(C([2H])([2H])[2H])C([2H])([2H])[2H] [Compound 103, 4-(tert-Butyl-d9)-N-(6-(-2-hydroxyethoxy)-5-(2-methoxyphenoxy)-2,2′-bipyrimidin-4-yl)benzenesulfonamide] | –
31.6 | 30.9 | 32.4 | – | −11.7 | [2H]C([2H])(O)COc1nc(-c2ncccn2)nc(NS(=O)(=O)c2ccc(C(C)(C)C)cc2)c1Oc1ccccc1OC [Compound 104, 4-tert-Butyl-N-(6-(2-hydroxy-2,2-d2-ethoxy)-5-(2-methoxyphenoxy)-2,2′-bipyrimidin-4-yl)benzenesulfonamide] | –
